Data: PubChem BioAssay (NCI)
“And” between values parts separate entries of the source, which are not always exact repeats. Identical values can stand only once.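 Five compound concentrations were applied to cells in 96-well plates for 48 hours; endpoints were derived by simple linear interpolation of the resulting dose-response curve. GI50 marks 50% less growth. At the TGI there is no net growth.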

Columns and labels:
Assay in all cases: NCI-60 cell line screen, 48 h
SF-539 CNS = test system: SF-539 CNS
HL-60(TB) leukemia = test system: HL-60(TB) leukemia
HOP-62 NSCLC = test system: HOP-62 NSCLC
RPMI-8226 leukemia = test system: RPMI-8226 leukemia
KM12 colon = test system: KM12 colon
RXF 393 renal = test system: RXF 393 renal
OVCAR-5 ovarian = test system: OVCAR-5 ovarian
SK-MEL-28 melanoma = test system: SK-MEL-28 melanoma
SK-OV-3 ovarian = test system: SK-OV-3 ovarian
UO-31 renal = test system: UO-31 renal

Structure (SMILES)	TGI (SF-539 CNS)	TGI (HL-60(TB) leukemia)	TGI (HOP-62 NSCLC)	TGI (RPMI-8226 leukemia)	TGI (KM12 colon)	TGI (RXF 393 renal)	TGI (OVCAR-5 ovarian)	TGI (SK-MEL-28 melanoma)	TGI (SK-OV-3 ovarian)	TGI (UO-31 renal)	GI50 (SF-539 CNS)	GI50 (RPMI-8226 leukemia)	GI50 (KM12 colon)	GI50 (SK-OV-3 ovarian)	GI50 (HL-60(TB) leukemia)	GI50 (HOP-62 NSCLC)	GI50 (RXF 393 renal)	GI50 (OVCAR-5 ovarian)	GI50 (SK-MEL-28 melanoma)	GI50 (UO-31 renal)
O=C(COc1ccccc1)NS(=O)(=O)c1ccccc1	> 100 µM	> 100 µM	> 100 µM	> 100 µM	> 100 µM	> 100 µM	> 100 µM	> 100 µM	> 100 µM	> 100 µM	–	–	–	–	–	–	–	–	–	–
NC1=N/C(=C2/CCNC(=O)c3[nH]c(Br)cc32)C(=O)N1	17.3 µM and 35.5 µM	11.2 µM and 6.94 µM	> 100 µM	> 100 µM	> 100 µM	> 100 µM	> 100 µM	> 100 µM	> 100 µM	> 73 µM and 29.8 µM	4.29 µM and 13 µM	> 79.9 µM and 15.6 µM	> 100 µM	7.66 µM and 16.1 µM	–	–	–	–	–	–
COC1=CC(c2ccc[nH]2)=N/C1=C\c1ccc[nH]1	1.87 µM	3.39 µM	9.27 µM	0.57 µM	12.8 µM	2.7 µM	13.7 µM	9.35 µM	18.6 µM	0.339 µM	0.295 µM	0.0651 µM	0.0698 µM	5.37 µM	0.0672 µM	0.27 µM	0.378 µM	0.683 µM	0.774 µM	0.0778 µM
O=C(/C=C\c1ccc(Cl)cc1Cl)c1cccs1	36.5 µM	> 100 µM	56.2 µM	12.8 µM	38.8 µM	44.3 µM	41.3 µM	42.3 µM	59.3 µM	25 µM	–	–	–	–	–	–	–	–	–	–
COc1cc(-c2cc(-c3nc4ccc(Cl)cc4[nH]3)[nH]n2)cc(OC)c1OC	18.3 µM	7.47 µM	10.7 µM	4.21 µM	10.6 µM	14.5 µM	30.2 µM	7.11 µM	14.3 µM	11.2 µM	4.66 µM	1.65 µM	3.45 µM	4.47 µM	2.49 µM	3.11 µM	3.26 µM	12.1 µM	2.42 µM	2.64 µM
N#Cc1ccnc(N2C(=O)CC[C@H]2C(=O)N(c2cncc(F)c2)[C@H](C(=O)NC2CC(F)(F)C2)c2ccccc2Cl)c1	> 100 µM	> 100 µM	> 100 µM	> 100 µM	> 100 µM	> 100 µM	> 100 µM	> 100 µM	> 100 µM	> 100 µM	> 100 µM	97.3 µM	67 µM	> 100 µM	> 100 µM	> 100 µM	> 100 µM	> 100 µM	> 100 µM	18.3 µM
CC(C)(C)C(=O)C1CC(=O)c2ccccc2C1=O (centres undefined)	> 100 µM	43.6 µM	62.9 µM	64.8 µM	> 100 µM	80.6 µM	> 100 µM	72.8 µM	75 µM	67.8 µM	–	–	–	–	–	–	–	–	–	–
COC(=O)C(Cl)=C1CC1	69.1 µM	51.3 µM	> 100 µM	60.4 µM	> 100 µM	35.8 µM	> 100 µM	54.3 µM	> 100 µM	89.9 µM	–	–	–	–	–	–	–	–	–	–
CN(C)CCCc1c[nH]c2ccccc12	> 100 µM	> 100 µM	> 100 µM	> 100 µM	> 100 µM	> 100 µM	> 100 µM	> 100 µM	> 100 µM	> 100 µM	–	–	–	–	–	–	–	–	–	–
COc1ccccc1CNCCCN1C(=O)c2ccc3c4c(ccc(c24)C1=O)C(=O)N(CCCNCCCN)C3=O	2.82 µM	2.78 µM	3.34 µM	4.88 µM	4.14 µM	1.93 µM	7.36 µM	2.7 µM	4.66 µM	3.08 µM	0.968 µM	0.581 µM	0.705 µM	1.01 µM	0.744 µM	0.444 µM	0.246 µM	1.41 µM	0.74 µM	0.744 µM
Cc1ccc(S(=O)(=O)N2CCc3ccc(O)c4c3C2Cc2cc(Cl)ccc2-4)cc1 (centres undefined)	2.83 µM	4.06 µM	5.65 µM	2.6 µM	4.21 µM	2.49 µM	16.5 µM	5.84 µM	3.75 µM	14.4 µM	0.792 µM	0.875 µM	1.18 µM	1.11 µM	1.05 µM	1.56 µM	0.83 µM	2.02 µM	1.68 µM	1.52 µM
COc1ccc(-c2nc(-c3nc4ccc(OC)cc4[nH]3)cc3c2[nH]c2ccccc23)cc1	> 100 µM	> 100 µM	> 100 µM	2.86 µM	> 100 µM	> 100 µM	> 100 µM	> 100 µM	> 100 µM	> 100 µM	9.29 µM	0.363 µM	2.57 µM	> 100 µM	4.08 µM	4.24 µM	2.77 µM	> 100 µM	> 100 µM	1.66 µM
COP1(=O)Oc2ccccc2C(=O)C(C(F)(F)F)(C(F)(F)F)O1 (centres undefined)	> 100 µM	> 100 µM	> 100 µM	> 100 µM	> 100 µM	> 100 µM	> 100 µM	> 100 µM	> 100 µM	> 100 µM	–	–	–	–	–	–	–	–	–	–
COc1ccc(C2=NN(C(C)=O)C(c3cn(-c4ccccc4)nc3-c3ccc(Cl)cc3)C2)cc1 (centres undefined)	> 100 µM	> 100 µM	> 100 µM	> 100 µM	> 100 µM	> 100 µM	> 100 µM	> 100 µM	> 100 µM	> 100 µM	25.4 µM	> 100 µM	> 100 µM	4.64 µM	> 100 µM	> 100 µM	10.5 µM	> 100 µM	> 100 µM	> 100 µM
O=c1cnn2c(n1)sc1ccc3ccccc3c12	> 100 µM	> 100 µM	> 100 µM	> 100 µM	> 100 µM	> 100 µM	> 100 µM	> 100 µM	> 100 µM	> 100 µM	–	–	–	–	–	–	–	–	–	–
